Data as given in patent US20240182445A1 (ONO PHARMACEUTICAL CO., LTD., priority 2019, published 2024).

Target: T1, human TREK-1 (Homo sapiens, UniProt O95069)
T1 construct: expressed in transfected cells
T1 sequence (O95069 1-426): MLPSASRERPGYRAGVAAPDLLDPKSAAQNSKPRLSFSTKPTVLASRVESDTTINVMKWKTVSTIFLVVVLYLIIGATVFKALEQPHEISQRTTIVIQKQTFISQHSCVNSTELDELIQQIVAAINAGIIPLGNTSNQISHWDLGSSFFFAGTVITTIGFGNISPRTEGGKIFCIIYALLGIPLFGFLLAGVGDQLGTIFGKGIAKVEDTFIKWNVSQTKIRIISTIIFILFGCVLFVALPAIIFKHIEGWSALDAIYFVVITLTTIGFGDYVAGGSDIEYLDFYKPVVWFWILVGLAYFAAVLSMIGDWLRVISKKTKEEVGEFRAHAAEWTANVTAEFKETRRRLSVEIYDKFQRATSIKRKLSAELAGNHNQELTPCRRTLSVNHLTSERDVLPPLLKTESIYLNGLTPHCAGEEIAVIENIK
Test: TREK-1 Thallium (Tl+) flux assay, Method 1
Type: cell-based
Conditions: TREK-1 Thallium (Tl+) flux assay; no *^12 (Method 2) mark on these rows
Method in brief: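 CHO-K1 cells stably expressing human TREK-1, loaded with Thallos dye, received compound or 0.3% DMSO vehicle for 10 min before thallium stimulus buffer. ΔRatio is fluorescence at 25 s after thallium addition over mean pre-addition fluorescence; % inhibition calculated from it.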

| SMILES | IC50 |
| --- | --- |
| Cc1cc(C#Cc2ccccc2)cnc1NC(=O)c1c(Cl)cnn1[C@@H]1CCN(C(=O)OC(C)(C)C)C1 [Compound 353, tert-butyl (R)-3-(4-chloro-5-((3-methyl-5-(phenylethynyl)pyridin-2-yl)carbamoyl)-1H-pyrazol-1-yl)pyrrolidine-1-carboxylate] | 850 nM |
| Cc1cc(C#Cc2cccs2)cnc1NC(=O)c1c(Cl)cnn1[C@H]1C[C@@H]2CN(C(=O)C(C)(C)C)C[C@@H]2C1 [Compound 354, 4-chloro-1-[(3aR,5s,6aS)-2-(2,2-dimethylpropanoyl)octahydrocyclopenta [c]pyrrol-5-yl]-N-{3-methyl-5-[(thiophen-2-yl)ethynyl]pyridin-2-yl}-1H-pyrazole-5-carboxamide] | 850 nM |
| CCC(=O)N1CCCC(Cn2ncc(Cl)c2C(=O)Nc2ncc(C#Cc3ccc(F)cc3)cc2C)C1 (centres unmarked) [Compound 355, 4-chloro-N-(5-((4-fluorophenyl)ethynyl)-3-methylpyridin-2-yl)-1-((1-propionylpiperidin-3-yl)methyl)-1H-pyrazole-5-carboxamide] | 850 nM |
| CC(=O)N1CCC(Cn2ncc(Cl)c2C(=O)Nc2ncc(C#Cc3ccccc3F)cc2C)CC1 [Compound 356, 1-((1-acetylpiperidin-4-yl)methyl)-4-chloro-N-(5-((2-fluorophenyl)ethynyl)-3-methylpyridin-2-yl)-1H-pyrazole-5-carboxamide] | 860 nM |
| Cc1cc(C#Cc2ccccc2)cnc1NC(=O)c1c(Cl)cnn1[C@H]1C[C@@H](NC(=O)OC(C)(C)C)C1 [Compound 357, tert-butyl (cis-3-(4-chloro-5-((3-methyl-5-(phenylethynyl)pyridin-2-yl)carbamoyl)-1H-pyrazol-1-yl)cyclobutyl)carbamate] | 870 nM |
| Cc1cc(C#Cc2ccccc2)cnc1NC(=O)c1c(Cl)cnn1C1CCCC(NC(=O)OC(C)(C)C)C1 (centres unmarked) [Compound 358, tert-butyl (3-(4-chloro-5-((3-methyl-5-(phenylethynyl)pyridin-2-yl)carbamoyl)-1H-pyrazol-1-yl)cyclohexyl)carbamate] | 880 nM |
| CC(=O)N1C[C@H]2C[C@H](n3ncc(Cl)c3C(=O)Nc3ncc(C#Cc4ccccc4F)cc3C)C[C@H]2C1 [Compound 359, 1-[(3aR,5s,6aS)-2-acetyloctahydrocyclopenta[c]pyrrol-5-yl]-4-chloro-N-{5-[(2-fluorophenyl)ethynyl]-3-methylpyridin-2-yl}-1H-pyrazole-5-carboxamide] | 900 nM |
| CC(C)(C)OC(=O)N[C@H]1CC[C@H](n2ncc(Cl)c2C(=O)Nc2ncc(C#Cc3ccccc3)cc2F)CC1 [Compound 360, tert-butyl (trans-4-(4-chloro-5-((3-fluoro-5-(phenylethynyl)pyridin-2-yl)carbamoyl)-1H-pyrazol-1-yl)cyclohexyl)carbamate] | 900 nM |
| O=C(Nc1ncc(C#Cc2ccccc2)cc1Cl)c1c(Cl)cnn1C[C@H]1COCCO1 [Compound 361, (S)-1-((1,4-dioxan-2-yl)methyl)-4-chloro-N-(3-chloro-5-(phenylethynyl)pyridin-2-yl)-1H-pyrazole-5-carboxamide] | 910 nM |
| Cc1cc(C#Cc2ccccc2)cnc1NC(=O)c1c(Cl)nn(C)c1-c1ccc2c(cnn2C)c1 [Compound 364, 3-chloro-1-methyl-5-(1-methyl-1H-indazol-5-yl)-N-(3-methyl-5-(phenylethynyl)pyridin-2-yl)-1H-pyrazole-4-carboxamide] | 910 nM |
| CC(C)(C)OC(=O)N1CCCC(Cn2ncc(Cl)c2C(=O)Nc2ncc(C#Cc3ccccc3)cc2F)C1 (centres unmarked) [Compound 365, tert-butyl 3-((4-chloro-5-((3-fluoro-5-(phenylethynyl)pyridin-2-yl)carbamoyl)-1H-pyrazol-1-yl)methyl)piperidine-1-carboxylate] | 920 nM |
| O=C(Nc1ncc(C#Cc2ccccc2)cc1F)c1c(Cl)cnn1CC1CCCO1 (centres unmarked) [Compound 366, 4-chloro-N-(3-fluoro-5-(phenylethynyl)pyridin-2-yl)-1-((tetrahydrofuran-2-yl)methyl)-1H-pyrazole-5-carboxamide] | 930 nM |
| Cc1cc(C#Cc2ccc(F)cc2)cnc1NC(=O)c1c(Cl)cnn1CC1CN(C(=O)C2CCC2)CCO1 (centres unmarked) [Compound 367, 4-chloro-1-((4-(cyclobutanecarbonyl)morpholin-2-yl)methyl)-N-(5-((4-fluorophenyl)ethynyl)-3-methylpyridin-2-yl)-1H-pyrazole-5-carboxamide] | 940 nM |
| Cc1cc(C#Cc2ccc(F)cc2)cnc1NC(=O)c1c(Cl)cnn1C[C@H]1CCCN(C(=O)OC(C)(C)C)C1 [Compound 368, tert-butyl (S)-3-((4-chloro-5-((5-((4-fluorophenyl)ethynyl)-3-methylpyridin-2-yl)carbamoyl)-1H-pyrazol-1-yl)methyl)piperidine-1-carboxylate] | 940 nM |
| COCCn1ncc(Cl)c1C(=O)Nc1ncc(C#Cc2ccccc2)cc1C [Compound 369, 4-chloro-1-(2-methoxyethyl)-N-(3-methyl-5-(phenylethynyl)pyridin-2-yl)-1H-pyrazole-5-carboxamide] | 950 nM |
| CC(=O)N1CC2CC(C1)C2Cn1ncc(Cl)c1C(=O)Nc1ncc(C#Cc2ccccc2)cc1C (centres unmarked) [Compound 370, 1-((3-acetyl-3-azabicyclo[3.1.1]heptan-6-yl)methyl)-4-chloro-N-(3-methyl-5-(phenylethynyl)pyridin-2-yl)-1H-pyrazole-5-carboxamide] | 980 nM |
| Cc1cc(C#Cc2ccccc2)cnc1NC(=O)c1c(Cl)cnn1CC1CCC(C)(C)O1 (centres unmarked) [Compound 371, 4-chloro-1-((5,5-dimethyltetrahydrofuran-2-yl)methyl)-N-(3-methyl-5-(phenylethynyl)pyridin-2-yl)-1H-pyrazole-5-carboxamide] | 1000 nM |
| Cn1nc(Cl)c(C(=O)Nc2ncc(C#Cc3ccccc3)cc2F)c1-c1ccc2c(cnn2C)c1 [Compound 372, 3-chloro-N-(3-fluoro-5-(phenylethynyl)pyridin-2-yl)-1-methyl-5-(1-methyl-1H-indazol-5-yl)-1H-pyrazole-4-carboxamide] | 1080 nM |
| CCN1CC(n2ncc(Cl)c2C(=O)Nc2ncc(C#Cc3ccccc3)cc2F)C1 [Compound 373, 4-chloro-1-(1-ethylazetidin-3-yl)-N-(3-fluoro-5-(phenylethynyl)pyridin-2-yl)-1H-pyrazole-5-carboxamide hydrate] | 1100 nM |
| Cc1ncc(Cn2ncc(Cl)c2C(=O)Nc2ncc(C#Cc3ccccc3)cc2C)s1 [Compound 374, 4-chloro-N-(3-methyl-5-(phenylethynyl)pyridin-2-yl)-1-((2-methylthiazol-5-yl)methyl)-1H-pyrazole-5-carboxamide] | 1130 nM |
| Cc1cc(C#Cc2ccccc2)cnc1NC(=O)c1c(Cl)ccn1CC1CCOCC1 [Compound 375, 3-chloro-N-(3-methyl-5-(phenylethynyl)pyridin-2-yl)-1-((tetrahydro-2H-pyran-4-yl)methyl)-1H-pyrrole-2-carboxamide] | 1150 nM |
| O=C(Nc1ncc(C#Cc2ccccc2)cc1Cl)c1c(Cl)cnn1[C@@H]1CCOC1 [Compound 376, (R)-4-chloro-N-(3-chloro-5-(phenylethynyl)pyridin-2-yl)-1-(tetrahydrofuran-3-yl)-1H-pyrazole-5-carboxamide] | 1540 nM |
| CCN1CC(n2ncc(Cl)c2C(=O)Nc2ncc(C#Cc3ccccc3)cc2C)C1 [Compound 377, 4-chloro-1-(1-ethylazetidin-3-yl)-N-(3-methyl-5-(phenylethynyl)pyridin-2-yl)-1H-pyrazole-5-carboxamide] | 1710 nM |
| CC(=O)N1CCC(n2ncc(Cl)c2C(=O)Nc2cnc(C#Cc3ccccc3)c(F)c2)CC1 [Compound 378, 1-(1-acetylpiperidin-4-yl)-4-chloro-N-(5-fluoro-6-(phenylethynyl)pyridin-3-yl)-1H-pyrazole-5-carboxamide] | 5680 nM |
| Cc1cc(-c2cnn(-c3ccc(F)cc3)c2)cnc1NC(=O)c1c(Cl)cnn1C[C@@H]1CCOC1 [Compound 379, (S)-4-chloro-N-(5-(1-(4-fluorophenyl)-1H-pyrazol-4-yl)-3-methylpyridin-2-yl)-1-((tetrahydrofuran-3-yl)methyl)-1H-pyrazole-5-carboxamide] | 320 nM |
| Cc1cc(OCc2ccccc2)ccc1NC(=O)c1c(Cl)cnn1[C@H]1CC[C@@H](NC(=O)C2COCCO2)CC1 (stereo partly drawn) [Compound 380, 1-(cis-4-(1,4-dioxane-2-carboxamido)cyclohexyl)-N-(4-(benzyloxy)-2-methylphenyl)-4-chloro-1H-pyrazole-5-carboxamide] | 380 nM |
| Cc1cc(-c2cnn(-c3ccc(F)cc3)c2)cnc1NC(=O)c1c(Cl)cnn1C1CCOCC1 [Compound 381, 4-chloro-N-(5-(1-(4-fluorophenyl)-1H-pyrazol-4-yl)-3-methylpyridin-2-yl)-1-(tetrahydro-2H-pyran-4-yl)-1H-pyrazole-5-carboxamide] | 600 nM |
| Cc1cc(OCc2ccccc2)ccc1NC(=O)c1c(Cl)cnn1[C@H]1CC[C@@H](NC(=O)CC(C)C)CC1 [Compound 382, N-(4-(benzyloxy)-2-methylphenyl)-4-chloro-1-(cis-4-(3-methylbutanamido)cyclohexyl)-1H-pyrazole-5-carboxamide] | 610 nM |
| COc1ncc(-c2cnc(NC(=O)c3c(Cl)cnn3C3CCN(C(=O)OC(C)(C)C)CC3)c(C)c2)cc1F [Compound 383, tert-butyl 4-(4-chloro-5-((5′-fluoro-6′-methoxy-5-methyl-[3,3′-bipyridin]-6-yl)carbamoyl)-1H-pyrazol-1-yl)piperidine-1-carboxylate] | 680 nM |
